# Test results from ChEMBL document CHEMBL4706663, “Large-scale isolation and antitumor mechanism evaluation of compounds from the traditional Chinese medicine Cordyceps Militaris” (Eur J Med Chem, 2021).
# Calls of active or inactive are those of the source. The calls are words filed in the database; no cut-off is given here.
# Experiments:
# A549 = experiment: Antiproliferative activity against human A549 cells assessed as inhibition of cell growth at 12.5 ug/ml measured after 48 hrs by real-time cell analysis relative to control; format: functional; details: read-out: GI
# HepG2 = experiment: Antiproliferative activity against human HepG2 cells assessed as inhibition of cell growth at 12.5 ug/ml measured after 48 hrs by real-time cell analysis relative to control; format: functional; details: read-out: GI
# [1] = Antitumor activity against […] cancer cells xenografted in BALB/c mouse assessed as tumor weight at 240 mg/kg, ig administered every day for 10 days (reference value: 1.68 +/- 0.78 g); format: functional, Lewis lung carcinoma; details: time 10 day
# [2] = Antitumor activity against […] cancer cells xenografted in BALB/c mouse assessed as tumor weight at 80 mg/kg, ig administered every day for 10 days (reference value: 1.68 +/- 0.78 g); format: functional, Lewis lung carcinoma; details: time 10 day
# [3] = Antitumor activity against […] cancer cells xenografted in BALB/c mouse assessed as tumor weight at 27 mg/kg, ig administered every day for 10 days (reference value: 1.68 +/- 0.78 g); format: functional, Lewis lung carcinoma; details: time 10 day
# [4] = Antitumor activity against […] cancer cells xenografted in BALB/c mouse assessed as tumor growth inhibition at 240 mg/kg, ig administered every day for 10 days relative to control; format: functional; details: Lewis lung carcinoma, po, 240 h, time 10 day, read-out: TGI
# [5] = Antitumor activity against […] cancer cells xenografted in BALB/c mouse assessed as tumor growth inhibition at 80 mg/kg, ig administered every day for 10 days relative to control; format: functional; details: Lewis lung carcinoma, po, 240 h, time 10 day, read-out: TGI
# [6] = Antitumor activity against […] cancer cells xenografted in BALB/c mouse assessed as tumor growth inhibition at 27 mg/kg, ig administered every day for 10 days relative to control; format: functional; details: Lewis lung carcinoma, po, 240 h, time 10 day, read-out: TGI
# [7] = Antitumor activity against […] cancer cells xenografted in BALB/c mouse assessed as lung weight at 240 mg/kg, ig administered every day for 10 days measured post last dose (reference value: 0.13 +/- 0.03 g); format: functional, Lewis lung carcinoma; details: time 10 day
# [8] = Antitumor activity against […] cancer cells xenografted in BALB/c mouse assessed as lung weight at 80 mg/kg, ig administered every day for 10 days measured post last dose (reference value: 0.13 +/- 0.03 g); format: functional, Lewis lung carcinoma; details: time 10 day
# [9] = Antitumor activity against […] cancer cells xenografted in BALB/c mouse assessed as lung weight at 27 mg/kg, ig administered every day for 10 days measured post last dose (reference value: 0.13 +/- 0.03 g); format: functional, Lewis lung carcinoma; details: time 10 day
# [10] = Toxicity in […] lung cancer cells xenografted BALB/c mouse assessed as net weight at 240 mg/kg, ig administered every day for 10 days (reference value: 1.16 +/- 1.55 g); format: organism-based; details: in vivo, po, 240 h, time 10 day
# [11] = Toxicity in […] lung cancer cells xenografted BALB/c mouse assessed as survival rate at 240 mg/kg, ig administered every day for 10 days (reference value: 100%); format: organism-based; details: in vivo, po, time 10 day
# [12] = Toxicity in […] lung cancer cells xenografted BALB/c mouse assessed as survival rate at 80 mg/kg, ig administered every day for 10 days (reference value: 100%); format: organism-based; details: in vivo, po, time 10 day
# [13] = Toxicity in […] lung cancer cells xenografted BALB/c mouse assessed as survival rate at 27 mg/kg, ig administered every day for 10 days (reference value: 100%); format: organism-based; details: in vivo, po, time 10 day
# [14] = Antitumor activity against […] cells xenografted in KM mouse assessed as tumor weight at 240 mg/kg, ig administered every day for 10 days (reference value: 0.55 +/- 0.57 g); format: functional; details: time 10 day
# [15] = Antitumor activity against […] cells xenografted in KM mouse assessed as tumor weight at 80 mg/kg, ig administered every day for 10 days (reference value: 0.55 +/- 0.57 g); format: functional; details: time 10 day
# [16] = Antitumor activity against […] cells xenografted in KM mouse assessed as tumor weight at 27 mg/kg, ig administered every day for 10 days (reference value: 0.55 +/- 0.57 g); format: functional; details: time 10 day
# [17] = Antitumor activity against […] cells xenografted in KM mouse assessed as tumor growth inhibition at 240 mg/kg, ig administered every day for 10 days relative to control; format: functional; details: H22, po, 240 h, time 10 day, read-out: TGI
# [18] = Antitumor activity against […] cells xenografted in KM mouse assessed as tumor growth inhibition at 80 mg/kg, ig administered every day for 10 days relative to control; format: functional; details: H22, po, 240 h, time 10 day, read-out: TGI
# [19] = Antitumor activity against […] cells xenografted in KM mouse assessed as tumor growth inhibition at 27 mg/kg, ig administered every day for 10 days relative to control; format: functional; details: H22, po, 240 h, time 10 day, read-out: TGI
# [20] = Toxicity in […] cells xenografted KM mouse assessed as net weight at 240 mg/kg, ig administered every day for 10 days (reference value: 9.45 +/- 4 g); format: organism-based; details: in vivo, po, 240 h, time 10 day
# [21] = Toxicity in […] cells xenografted KM mouse assessed as net weight at 80 mg/kg, ig administered every day for 10 days (reference value: 9.45 +/- 4 g); format: organism-based; details: in vivo, po, 240 h, time 10 day
# [22] = Toxicity in […] cells xenografted KM mouse assessed as net weight at 27 mg/kg, ig administered every day for 10 days (reference value: 9.45 +/- 4 g); format: organism-based; details: in vivo, po, 240 h, time 10 day
# [23] = Toxicity in […] cells xenografted KM mouse assessed as survival rate at 240 mg/kg, ig administered every day for 10 days relative to control; format: organism-based; details: in vivo, po, time 10 day
# [24] = Toxicity in […] cells xenografted KM mouse assessed as survival rate at 80 mg/kg, ig administered every day for 10 days relative to control; format: organism-based; details: in vivo, po, time 10 day
# [25] = Toxicity in […] cells xenografted KM mouse assessed as survival rate at 27 mg/kg, ig administered every day for 10 days relative to control; format: organism-based; details: in vivo, po, time 10 day
# [26] = target: Heat shock cognate 71 kDa protein (Homo sapiens) (UniProt P11142); experiment: Binding affinity to heat shock cognate 71 kDa protein isoform 1 in human A549 cells by LC-MS/MS analysis; format: cell-based
# [27] = target: Tropomyosin alpha-4 chain (Homo sapiens) (UniProt P67936); experiment: Binding affinity to tropomyosin alpha-4 chain isoform 1 in human A549 cells by LC-MS/MS analysis; format: cell-based
# [28] = target: Endoplasmic reticulum chaperone BiP (Homo sapiens) (UniProt P11021); experiment: Binding affinity to 78 kDa glucose-regulated protein in human A549 cells by LC-MS/MS analysis; format: cell-based
# [29] = target: Heat shock 70 kDa protein 1A/1B (Homo sapiens) (UniProt P0DMV8+P0DMV9); experiment: Binding affinity to heat shock 70 kDa protein 1A/1B in human A549 cells by LC-MS/MS analysis; format: cell-based
# [30] = target: Glyceraldehyde-3-phosphate dehydrogenase (Homo sapiens) (UniProt P04406); experiment: Binding affinity to GAPDH in human A549 cells by LC-MS/MS analysis; format: cell-based
# [31] = target: Dihydropyrimidinase-related protein 2 (Homo sapiens) (UniProt Q16555); experiment: Binding affinity to dihydropyrimidinase-related protein 2 isoform 1 in human A549 cells by LC-MS/MS analysis; format: cell-based
# [32] = target: Tropomyosin alpha-1 chain (Homo sapiens) (UniProt P09493); experiment: Binding affinity to tropomyosin alpha-1 chain isoform 1 in human A549 cells by LC-MS/MS analysis; format: cell-based
# Sequence of Tropomyosin alpha-1 chain (Homo sapiens) (P09493 whole entry, canonical isoform): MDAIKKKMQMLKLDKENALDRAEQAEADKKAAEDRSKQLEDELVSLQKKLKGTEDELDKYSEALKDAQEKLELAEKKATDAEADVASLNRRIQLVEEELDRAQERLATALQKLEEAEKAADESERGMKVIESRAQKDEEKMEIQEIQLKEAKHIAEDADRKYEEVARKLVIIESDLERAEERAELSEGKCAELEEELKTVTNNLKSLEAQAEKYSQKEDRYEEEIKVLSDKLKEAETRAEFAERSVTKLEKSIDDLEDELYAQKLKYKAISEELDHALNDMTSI
# Sequence of Heat shock 70 kDa protein 1A/1B (Homo sapiens) (P0DMV8 whole entry, looked up): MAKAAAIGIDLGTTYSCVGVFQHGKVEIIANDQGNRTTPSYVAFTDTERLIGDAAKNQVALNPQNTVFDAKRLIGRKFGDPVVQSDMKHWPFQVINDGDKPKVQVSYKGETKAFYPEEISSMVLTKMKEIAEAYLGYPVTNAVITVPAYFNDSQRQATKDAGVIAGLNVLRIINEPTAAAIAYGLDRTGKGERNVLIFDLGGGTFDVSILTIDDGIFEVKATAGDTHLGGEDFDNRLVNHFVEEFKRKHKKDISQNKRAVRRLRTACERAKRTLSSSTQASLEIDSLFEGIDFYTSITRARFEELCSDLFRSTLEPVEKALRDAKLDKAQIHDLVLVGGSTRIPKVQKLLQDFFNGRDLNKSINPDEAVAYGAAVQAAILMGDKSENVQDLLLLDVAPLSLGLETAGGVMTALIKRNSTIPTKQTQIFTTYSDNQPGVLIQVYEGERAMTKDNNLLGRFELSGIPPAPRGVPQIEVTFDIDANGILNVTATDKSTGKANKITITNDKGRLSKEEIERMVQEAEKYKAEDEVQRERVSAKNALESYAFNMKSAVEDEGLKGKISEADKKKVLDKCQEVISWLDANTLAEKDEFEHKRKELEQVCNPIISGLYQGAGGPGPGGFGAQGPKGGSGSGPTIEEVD
# Sequence of Heat shock 70 kDa protein 1A/1B (Homo sapiens) (P0DMV9 whole entry, looked up): as the sequence (P0DMV8 whole entry, looked up) above
# Sequence of Endoplasmic reticulum chaperone BiP (Homo sapiens) (P11021 whole entry): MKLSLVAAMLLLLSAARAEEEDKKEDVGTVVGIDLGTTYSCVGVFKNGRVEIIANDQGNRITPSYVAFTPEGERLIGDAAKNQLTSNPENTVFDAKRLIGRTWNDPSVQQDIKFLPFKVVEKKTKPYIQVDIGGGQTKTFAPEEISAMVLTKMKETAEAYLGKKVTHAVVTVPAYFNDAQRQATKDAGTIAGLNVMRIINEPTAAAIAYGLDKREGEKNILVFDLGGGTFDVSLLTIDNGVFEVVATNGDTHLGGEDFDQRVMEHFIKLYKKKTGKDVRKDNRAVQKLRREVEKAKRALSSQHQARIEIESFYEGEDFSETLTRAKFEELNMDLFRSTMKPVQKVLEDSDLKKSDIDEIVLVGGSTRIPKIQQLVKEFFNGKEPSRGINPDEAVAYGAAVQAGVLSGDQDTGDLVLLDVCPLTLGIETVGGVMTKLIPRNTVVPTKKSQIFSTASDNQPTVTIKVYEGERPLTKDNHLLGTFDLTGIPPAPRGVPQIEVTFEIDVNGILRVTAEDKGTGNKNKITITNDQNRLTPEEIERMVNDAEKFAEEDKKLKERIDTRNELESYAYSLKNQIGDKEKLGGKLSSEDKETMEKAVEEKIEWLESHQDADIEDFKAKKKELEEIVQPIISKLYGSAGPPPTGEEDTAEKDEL
# Sequence of Glyceraldehyde-3-phosphate dehydrogenase (Homo sapiens) (P04406 2-335 limits assumed): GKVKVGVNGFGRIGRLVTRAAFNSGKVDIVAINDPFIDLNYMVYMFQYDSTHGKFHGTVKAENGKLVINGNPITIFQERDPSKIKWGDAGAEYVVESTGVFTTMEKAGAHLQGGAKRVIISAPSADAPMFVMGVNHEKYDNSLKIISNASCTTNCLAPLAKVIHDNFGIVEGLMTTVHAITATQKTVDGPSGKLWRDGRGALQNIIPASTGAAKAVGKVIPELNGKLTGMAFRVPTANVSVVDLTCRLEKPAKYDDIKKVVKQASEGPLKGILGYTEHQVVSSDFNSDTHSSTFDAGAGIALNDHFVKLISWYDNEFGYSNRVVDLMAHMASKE
# Sequence of Heat shock cognate 71 kDa protein (Homo sapiens) (P11142 2-646 limits assumed): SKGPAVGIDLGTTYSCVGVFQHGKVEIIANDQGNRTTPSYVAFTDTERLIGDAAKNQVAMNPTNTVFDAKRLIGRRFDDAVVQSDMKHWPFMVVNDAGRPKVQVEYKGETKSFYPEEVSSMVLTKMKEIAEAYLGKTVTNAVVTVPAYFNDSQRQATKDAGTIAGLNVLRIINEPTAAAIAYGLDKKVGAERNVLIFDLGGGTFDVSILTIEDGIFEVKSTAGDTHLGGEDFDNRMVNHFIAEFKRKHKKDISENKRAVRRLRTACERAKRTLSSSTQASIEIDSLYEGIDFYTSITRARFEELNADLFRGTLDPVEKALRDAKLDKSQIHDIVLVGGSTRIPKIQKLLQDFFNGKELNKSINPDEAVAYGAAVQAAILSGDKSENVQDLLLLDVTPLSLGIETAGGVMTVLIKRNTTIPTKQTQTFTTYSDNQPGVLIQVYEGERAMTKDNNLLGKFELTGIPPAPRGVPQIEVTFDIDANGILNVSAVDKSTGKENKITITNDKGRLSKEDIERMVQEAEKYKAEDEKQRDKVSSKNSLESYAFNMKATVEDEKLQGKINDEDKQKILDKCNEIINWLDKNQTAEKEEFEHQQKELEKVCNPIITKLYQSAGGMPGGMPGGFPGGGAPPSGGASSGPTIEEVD
# Sequence of Tropomyosin alpha-4 chain (Homo sapiens) (P67936 whole entry, canonical isoform): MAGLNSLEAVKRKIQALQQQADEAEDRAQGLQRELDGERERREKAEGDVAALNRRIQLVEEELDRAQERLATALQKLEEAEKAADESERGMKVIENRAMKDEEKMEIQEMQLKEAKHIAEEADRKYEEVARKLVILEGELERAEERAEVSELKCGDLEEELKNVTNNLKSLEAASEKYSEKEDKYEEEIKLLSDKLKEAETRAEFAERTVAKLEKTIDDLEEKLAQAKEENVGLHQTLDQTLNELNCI
smiles,measurement,setting,value
CC(C)[C@@H](C)/C=C/[C@@H](C)[C@H]1CC[C@H]2C3=CC=C4C[C@@H](O)CC[C@]4(C)[C@H]3CC[C@]12C [ERGOSTEROL],inhibition of growth at 12.5 µg/mL,A549,100%
same,inhibition of growth at 12.5 µg/mL,HepG2,100%
same,Activity,[1],0.93 g
same,Activity,[2],1.21 g
same,Activity,[3],1.42 g
same,inhibition in vivo at 240 mg/kg,[4],44.6%
same,inhibition in vivo at 80 mg/kg,[5],28.4%
same,inhibition in vivo at 27 mg/kg,[6],15.8%
same,Activity,[7],0.13 g
same,Activity,[8],0.12 g
same,Activity,[9],0.12 g
same,Activity,[10],-0.61 g
same,survival at 240 h,[11],100%
same,survival at 240 h,[12],100%
same,survival at 240 h,[13],100%
same,Activity,[14],0.19 g
same,Activity,[15],0.32 g
same,Activity,[16],0.42 g
same,inhibition in vivo at 240 mg/kg,[17],64.4%
same,inhibition in vivo at 80 mg/kg,[18],41.1%
same,inhibition in vivo at 27 mg/kg,[19],23.4%
same,Activity,[20],5.7 g
same,Activity,[21],7.78 g
same,Activity,[22],6.92 g
same,survival at 240 h,[23],100%
same,survival at 240 h,[24],100%
same,survival at 240 h,[25],100%
same,Activity,[26],Active
same,Activity,[27],Active
same,Activity,[28],Active
same,Activity,[29],Active
same,Activity,[30],Active
same,Activity,[31],Active
same,Activity,[32],Active
